Values of other authors, collected in patent US8278451B2, “Pseudoazulenyl nitrones” (The Florida International University Board of Trustees, priority 2006, dated 2012).

Columns and labels:
[1] = test system: LPS-induced organ dysfunction and cytokine secretion; conditions: rats, LPS administered
lifespan = conditions: aged animal model, daily intraperitoneal injection, male and female
[2] = test system: age-related changes in cognitive performance; conditions: aged rats, chronic treatment
[3] = test system: human diploid fibroblast cells; conditions: human diploid fibroblast cells in culture
[4] = aqueous solution at pH 7 and 20° C.

## CC1(C)Cc2ccccc2C=[N+]1[O-] [MDL 101,002]
[1]
  LPS-induced leukopenia: failed to prevent leukopenia
  LPS-induced pulmonary edema: prevented pulmonary edema
  LPS-induced thrombocytopenia: partially reduced thrombocytopenia
  organ dysfunction and cytokine secretion induced by LPS: reduces organ dysfunction and cytokine secretion

## CC(C)(C)[N+]([O-])=Cc1ccccc1 [PBN, alpha-phenyl-N-tert-butylnitrone]
lifespan
  lifespan: remarkable extension of the lifespan
[2]
  age-related changes in cognitive performance: benefit (i.e., improve) age-related changes in cognitive performance
[3]
  onset of senescence: effectively delayed the onset of senescence

## Cc1c(C)c2c(c(C)c1O)CC[C@@](C)(CCC[C@H](C)CCC[C@H](C)CCCC(C)C)O2 [vitamin E, alpha-tocopherol]
[4]
  one-electron oxidative potential (vs. NHE): 0.48 V
[2]
  age-related changes in cognitive performance: benefit (i.e., improve) age-related changes in cognitive performance
